{"source": "the Kinase Knowledgebase extract (Sharma et al. 2016)", "note": "Where “and” joins values, the source holds several entries; their conditions need not be identical. Identical values can stand only once.", "data": [{"target": "MAPK14 (human) (UniProt Q16539)", "sequence (Q16539 whole entry, looked up)": "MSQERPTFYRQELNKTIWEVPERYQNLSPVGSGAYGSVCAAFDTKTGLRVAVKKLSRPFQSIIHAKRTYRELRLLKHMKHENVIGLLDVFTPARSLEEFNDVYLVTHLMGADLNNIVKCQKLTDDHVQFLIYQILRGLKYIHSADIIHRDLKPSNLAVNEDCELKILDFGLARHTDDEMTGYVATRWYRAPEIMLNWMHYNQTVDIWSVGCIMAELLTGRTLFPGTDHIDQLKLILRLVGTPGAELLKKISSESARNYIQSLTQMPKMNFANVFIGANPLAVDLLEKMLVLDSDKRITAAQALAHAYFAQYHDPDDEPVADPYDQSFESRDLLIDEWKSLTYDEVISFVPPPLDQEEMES", "experiment": "Enzyme Assay", "units": {"Kd": "µM"}, "values": [{"smiles": "CC(C)(C)c1cc(NC(=O)Nc2cccc3ccccc23)n(-c2cccc(C(=O)NCCCN3CCCC3)c2)n1", "Ki": "0.301 µM"}, {"smiles": "CC(C)(C)c1cc(NC(=O)Nc2cccc3ccccc23)n(-c2cccc(C(=O)NCc3ccncn3)c2)n1", "Ki": "0.327 µM"}, {"smiles": "CC(C)(C)c1cc(NC(=O)Nc2cccc3ccccc23)n(-c2cccc(C(=O)N(CCCN)C3CCCCC3)c2)n1", "Ki": "0.089 µM"}, {"smiles": "CN1CCN(CCNC(=O)c2cccc(-n3nc(C(C)(C)C)cc3NC(=O)Nc3cccc4ccccc34)c2)CC1", "Ki": "0.14 µM"}, {"smiles": "CC(C)(C)c1cc(NC(=O)Nc2cccc3ccccc23)n(-c2cccc(C(=O)NCC#N)c2)n1", "Kd": 0.055, "Ki": "0.25 µM and 0.252 µM"}, {"smiles": "COCCCN1CCC(NC(=O)c2cccc(-n3nc(C(C)(C)C)cc3NC(=O)Nc3cccc4ccccc34)c2)CC1", "Ki": "0.336 µM"}, {"smiles": "CC(C)CN(CCCN)C(=O)c1cccc(-n2nc(C(C)(C)C)cc2NC(=O)Nc2cccc3ccccc23)c1", "Ki": "0.312 µM"}, {"smiles": "CC(C)[C@H](CO)CNC(=O)c1cccc(-n2nc(C(C)(C)C)cc2NC(=O)Nc2cccc3ccccc23)c1", "Ki": "0.471 µM"}, {"smiles": "CC(C)CC(CNC(=O)c1cccc(-n2nc(C(C)(C)C)cc2NC(=O)Nc2cccc3ccccc23)c1)C(N)=O", "note": "(stereo not given)", "Ki": "0.786 µM"}, {"smiles": "CC(C)(C)c1cc(NC(=O)Nc2cccc3ccccc23)n(-c2cccc(C(=O)NCCNc3ccccc3)c2)n1", "Ki": "0.433 µM"}, {"smiles": "CC(C)(C)c1cc(NC(=O)Nc2cccc3ccccc23)n(-c2cccc(C(=O)N[C@@H]3CS(=O)(=O)C[C@H]3O)c2)n1", "Ki": "0.112 µM"}, {"smiles": "CC(C)(C)c1cc(NC(=O)Nc2cccc3ccccc23)n(-c2cccc(C(=O)NC3CCN(CCN4CCOCC4)CC3)c2)n1", "Ki": "0.885 µM"}, {"smiles": "CC(C)(C)c1cc(NC(=O)Nc2cccc3ccccc23)n(-c2cccc(C(=O)NCCCN3CCOCC3)c2)n1", "Ki": "0.291 µM"}, {"smiles": "CCN(CCN(C)C)C(=O)c1cccc(-n2nc(C(C)(C)C)cc2NC(=O)Nc2cccc3ccccc23)c1", "Ki": "0.735 µM"}]}]}
